From the METLIN SMRT retention time set (Domingo-Almenara et al. 2019) come the findings set out here.

Each structure is given as a SMILES string.

This data set is described as follows: gradient 5% acetonitrile 3 min, to 50% in 2 min, to 85% in 15 min, held 3 min, 100 µL/min. The conditions noted are these: column: Zorbax Extend-C18 2.1 x 50 mm; eluents: water / acetonitrile, 0.1% formic acid. Summed up:
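Retention times of pure standards were taken from adduct peaks that were selected by computer and manually inspected. Over 3 months, mixtures of ~100 molecules were run by HPLC–quadrupole time-of-flight mass spectrometry in positive and negative ionization mode. The Zorbax Extend-C18 column (2.1 × 50 mm, 1.8 μm) ran at 100 μL/min in water and acetonitrile, each containing 0.1% formic acid, with 40 μL dead volume and 900 μL dwell volume.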
`O=c1n(CCOc2ccccc2)nc2ccc(S(=O)(=O)N3CCCC3)cn12` registered an RP-LC retention time of 842 s.

`Cc1cc(NC(=O)C2CCc3nc(N4CCOCC4)ncc3C2)ccc1F` (centres undefined) registered an RP-LC retention time of 797 s.

The molecule `COc1ccc2[nH]c(=O)c(CCC(=O)O)cc2c1` gave an RP-LC retention time of 712 s.

As to `COc1ccc(C(=O)Nc2ccc(N3CCN(C4CCCC4)C3=O)nc2)c(OC)c1`, the RP-LC retention time came out at 829 s.

As to `CCCCOc1ccc(-c2cc3c4nnc(CCC(=O)NCc5ccccc5C)n4ccn3n2)cc1`, the RP-LC retention time was 1010 s.

Consider `CC(C)N1CCN(C(=O)C2=NN(c3ccc(Cl)cc3)c3ncccc3S2(=O)=O)CC1`, for which the RP-LC retention time came to 654 s.

For `CCC(NC(=O)Cc1cn(C)c2ncccc12)c1cccs1` (centres undefined), the RP-LC retention time came out at 709 s.

For `COCCNC(=O)CSc1cn(CC(=O)N2CC(C)OC(C)C2)c2ccccc12` (centres undefined), the RP-LC retention time was 709 s.

`CC(C)NC(=O)c1ccc2c(c1)ncn2CCNC(=O)Nc1ccc(Br)cc1F` registered an RP-LC retention time of 651 s.

`O=C(Cn1c(=O)c(CCC(=O)NC2CC2)nc2ccccc21)Nc1cc(F)cc(F)c1` yielded an RP-LC retention time of 774 s.

In turn, `Cc1noc(C2CN(C(=O)CCCc3ccccc3)CC23CCOCC3)n1` (centres undefined) registered an RP-LC retention time of 736 s.

As to `O=C(COc1ccc(C(=O)N2CCN(CCc3ccccc3)CC2)cc1)C1CC1`, the RP-LC retention time is 583 s.

`Cc1cccc(-c2noc(C3CCCN3C(=O)Nc3ccc4c(c3)OCO4)n2)c1` (centres undefined): the RP-LC retention time is 961 s.

Molecule `CN1C2CCC1CC(OC(c1ccccc1)c1ccccc1)C2` (centres undefined) came in with an RP-LC retention time of 784 s.

Molecule `Cn1c(=O)c2c(ncn2CCCNCC(O)c2cc(O)cc(O)c2)n(C)c1=O` (centres undefined) came in with an RP-LC retention time of 952 s.

`Cc1ccc(CNC(=O)c2cnc(-c3ccccc3)nc2-c2ccncc2)cc1C` came in with an RP-LC retention time of 916 s.

For `COc1ccccc1NC(=O)Cn1ncc2c(N3CCN(c4ccccn4)CC3)ncnc21`, the RP-LC retention time is 600 s.

On to `Cc1cc(C)cc(NC(=O)Cn2nc(N3CCCC(C)C3)c3ccccc3c2=O)c1` (centres undefined), for which the RP-LC retention time turned out to be 1240 s.

`CC(C)n1cnc2c(C(=O)N[C@H]3CN4CCC3CC4)cc(Cl)cc21` gave an RP-LC retention time of 692 s.

Regarding `CC(NC(=O)c1ccc(-c2cccs2)nc1)c1ccccc1` (centres undefined), the RP-LC retention time came to 910 s.

`O=C(Cn1c(C(F)(F)F)nc2cc3c(cc21)OCCO3)N1CCOCC1` registered an RP-LC retention time of 682 s.

`CCN1CCCn2cc(S(=O)(=O)Nc3cccc(OC)c3)cc2C1=O` yielded an RP-LC retention time of 698 s.

Regarding `O=C(Nc1ccc(Br)cc1F)Nc1c(-c2ccncc2)nc2ccccn12`, the RP-LC retention time worked out at 652 s.

Turning to `Cc1oc2c(c1C(=O)Nc1ccc(F)cc1Br)C1=NC(C)(C)CN1C=N2`, the RP-LC retention time is 671 s.

`CCCCCn1c(=O)c2ccccc2n(Cc2nc(-c3cccc(OC)c3)no2)c1=O`: the RP-LC retention time was determined as 1130 s.

Take `CCN(CC)CCCn1c(C)cc2c(c1=O)C(c1ccccc1OC)C(C#N)=C(N)O2` (centres undefined): the RP-LC retention time stood at 626 s.

The molecule `CC(=O)Nc1ccc(NC(=S)NC(=O)c2ccc(C(C)(C)C)cc2)cc1` returned an RP-LC retention time of 986 s.

On to `CC(C)(C)c1noc(-c2ccnc(-n3cnc(C(=O)N4CCCCCC4)c3)c2)n1`, for which the RP-LC retention time amounted to 998 s.

Take `CCOCC(=O)N1CC(c2nc(-c3ccc(F)cc3)no2)C2(CCOCC2)C1` (centres undefined): the RP-LC retention time amounted to 771 s.

With `Cc1ccc(N2C(=O)C3N=NN(Cc4nc(-c5ccc6c(c5)OCO6)no4)C3C2=O)cc1` (centres undefined), the RP-LC retention time is 957 s.

Consider `CCc1ccc(NC(=O)N2CCC(c3nc(C(=O)N4CCCC4)c(C)o3)CC2)cc1`, for which the RP-LC retention time worked out at 870 s.

`Cc1cc(C(=O)NCCc2c[nH]c3ccccc23)c2c(C)nn(-c3cccc(Cl)c3C)c2n1` had an RP-LC retention time of 1050 s.

Molecule `Cc1cccc(-c2ncccc2CNS(=O)(=O)c2ccc(C#N)cc2)c1` had an RP-LC retention time of 697 s.

In the case of `Cc1nc(-c2cc(S(=O)(=O)Nc3ccc(F)c(F)c3)c(C)s2)sc1C`, the RP-LC retention time is 1100 s.

Take `O=C(Nc1nnc(-c2ccsc2)o1)C1CC(=O)N(c2ccc(Cl)cc2)C1` (centres undefined): the RP-LC retention time amounted to 718 s.

In turn, `CCc1ccc(C2=Nc3ccccc3N(CC(N)=O)C(=O)C2)cc1` returned an RP-LC retention time of 788 s.

With `O=C(c1cccnc1)c1cc(-c2ccccn2)c(=O)n2ccccc12`, the RP-LC retention time amounted to 630 s.

`Cc1nc(C(=O)NCCCOC(C)C)c(C)n1C1CCN(C)CC1` registered an RP-LC retention time of 547 s.

Molecule `COc1ccc(NC(=O)Cn2nc3cc(C)nc(N4CCCC4)n3c2=O)cc1` came in with an RP-LC retention time of 709 s.

`COCCC1(N(C)C)CCN(C(=O)CC2CCCCC2)CC1` registered an RP-LC retention time of 621 s.

`COc1ccc(Cl)cc1S(=O)(=O)N1CCCC(C(=O)NCc2ccncc2)C1` (centres undefined) had an RP-LC retention time of 622 s.

With `CC1=C(c2ccc(F)cc2)S(=O)(=O)N=C1N1CCCN(C(=O)C2CCC2)CC1`, the RP-LC retention time amounted to 790 s.

For the molecule `O=C(Cc1cccc(F)c1)N1CCN(c2cc(-c3cccs3)[nH]n2)CC1`, the RP-LC retention time is 798 s.

Consider `COc1ccc(Cl)cc1NC(=O)CN1C(=O)CCSc2ccccc21`, for which the RP-LC retention time came out at 956 s.

As to `CN(C)C(=O)c1ccc2c(c1)N(CC(=O)N1CCN(c3ccccc3)CC1)C(=O)CO2`, the RP-LC retention time was found to be 689 s.

`Cc1cc(C)n(-c2nccnc2SCC(=O)Nc2cccc(Cl)c2C)n1` showed an RP-LC retention time of 871 s.

`CN(C)c1nc2cc(C(=O)N3CCCC3)sc2n1-c1ccccc1`: the RP-LC retention time was 657 s.

In turn, `Cc1ccc(CNC(=O)C2CCN(c3cncnc3N3CCOCC3)CC2)cc1` registered an RP-LC retention time of 631 s.

In turn, `Cc1ccccc1-c1noc(Cn2cnc3c(oc4ccccc43)c2=O)n1` registered an RP-LC retention time of 986 s.

`Cc1cccc(S(=O)(=O)N2CCC(c3nc(C(=O)N(C)C)c(C)o3)CC2)c1` came in with an RP-LC retention time of 826 s.

Consider `COc1ccccc1N1CCN(C(=O)c2cn3cc(Cl)ccc3n2)CC1`, for which the RP-LC retention time came to 858 s.

Regarding `COc1ccc(NC(=O)c2cc(C)n3nc(-c4ccco4)cc3n2)cc1Cl`, the RP-LC retention time worked out at 1110 s.

As for `CSC(=O)NC(=O)NC(=O)c1ccc([N+](=O)[O-])cc1`, the RP-LC retention time was 849 s.

With `CN(C)C(=O)c1ccc2c(c1)N(CC(=O)NC1CCCCCC1)C(=O)C1CCCCN21` (centres undefined), the RP-LC retention time turned out to be 801 s.

Take `COCCn1c(SCc2nc(-c3ccc(Cl)cc3)no2)nc2cc3c(cc2c1=O)OCO3`: the RP-LC retention time was determined as 1180 s.

`CCOc1ccc2c(n1)CCN(C(=O)C1(c3ccc(OC)cc3)CC1)C2`: the RP-LC retention time turned out to be 683 s.

With `Cc1nn(-c2ccc(F)cc2)c2nc(N3CCCC(C(=O)NCc4cccc(Cl)c4)C3)sc12` (centres undefined), the RP-LC retention time came out at 1200 s.

`Cc1cc(N2CCN(C)CC2)nc2ccc(NC(=O)CCC(=O)NCCc3ccc(Cl)cc3)cc12` returned an RP-LC retention time of 581 s.

`COc1cccc(-n2ccc(=O)c(-c3nc(-c4ccc(OC)c(OC)c4)no3)n2)c1` yielded an RP-LC retention time of 817 s.

Take `CCCc1ccc(S(=O)(=O)N2CCC3(CC2)NCCN=C3NCc2cccc(OC)c2)cc1`: the RP-LC retention time was determined as 834 s.

In turn, `Cc1ccc(-c2cn(CC(=O)Nc3cc(C)ccc3C)c(=O)o2)cc1` returned an RP-LC retention time of 954 s.

On to `COc1cc2c(cc1NC(=O)c1ccco1)n(C)c(=O)n2C`, for which the RP-LC retention time came to 688 s.

Molecule `COC(=O)c1cc2c(cc1NC(=O)c1cc(-c3cccnc3)nc3ccccc13)OCO2` returned an RP-LC retention time of 884 s.

`CC1CCN(S(=O)(=O)c2ccc3nn(Cc4c(F)cccc4Cl)c(=O)n3c2)CC1`: the RP-LC retention time was 1030 s.

Regarding `CCN1C(=O)c2cccnc2Sc2cc(NC(=O)c3ccc(F)c(Cl)c3)ccc21`, the RP-LC retention time was determined as 964 s.

The molecule `O=C(NCCC1CCN(C(=O)Nc2ccc(F)cc2F)CC1)c1ccoc1` came in with an RP-LC retention time of 726 s.

`O=C(Cc1ccccc1Cl)N1CCN(Cc2noc3ccccc23)CC1` had an RP-LC retention time of 739 s.

Turning to `O=C(NCCc1c[nH]c2ccc(F)cc12)c1ccc(F)cc1`, the RP-LC retention time was found to be 831 s.

`CCc1cc(-c2csc(S(=O)(=O)Nc3cc(C)cc(C)c3)c2)on1` registered an RP-LC retention time of 1050 s.

In turn, `CC(C)n1c(CC2CCN(C(=O)c3ccccc3Cl)C2)nc2cccnc21` (centres undefined) returned an RP-LC retention time of 622 s.

On to `Cc1cc(C)c(S(=O)(=O)N2CCCC2c2nc(-c3ccccc3)no2)cc1C` (centres undefined), for which the RP-LC retention time turned out to be 1260 s.

With `CCn1c(N2CCN(C(=O)NCc3ccccc3)CC2)nc2ccccc21`, the RP-LC retention time was 646 s.

`CCc1ccc(NC(=O)N2CCc3nc(C)ncc3C2)cc1` came in with an RP-LC retention time of 695 s.

`Cc1ccc(C(=O)NC2CCN(c3cc(N4CCCC4)cnn3)C2)s1` (centres undefined) had an RP-LC retention time of 649 s.

Turning to `COc1ccc(NC(=O)c2cc(C(C)C)n3nccc3n2)cc1Cl`, the RP-LC retention time was 1130 s.

Molecule `CCOc1ccccc1OCC(=O)c1ccc(O)cc1O` displayed an RP-LC retention time of 794 s.

Consider `CCCNC(=O)C1CCCN(c2ccc(SCC(=O)NCc3ccc(F)cc3)nn2)C1` (centres undefined), for which the RP-LC retention time is 652 s.

In the case of `CCCS(=O)(=O)c1nc2ccc(NS(=O)(=O)c3cc(C)cc(C)c3)cc2s1`, the RP-LC retention time turned out to be 998 s.

Regarding `Fc1ccc(-c2noc(-c3ccc(N4CCCCC4)nc3)n2)cc1`, the RP-LC retention time came out at 1360 s.
